# According to patent US8956662B2, “Phenylephrine pharmaceutical formulations and compositions for colonic absorption” (MSD Consumer Care, Inc., priority 2006, dated 2015):
# Structures can show the parent of a compound that is named as a salt. Where two headings read alike, the source gives them in different places.
# How the values were obtained:
# [1] = conventional tablet formulation; cited from earlier work
# [2] = Bioavailability of phenylephrine: plasma levels after delivery to the colon via Enterion capsules or oral Sudafed PE; assay type: in vivo, human; conditions: for t1/2, unconjugated Phenylephrine / Tmax, unconjugated Phenylephrine: hydrochloride; for Tlag, unconjugated Phenylephrine / Tmax, unconjugated Phenylephrine: median (range); for AUC(0-t) / Cmax / bioavailability / concentration at 0.083 h / concentration at […] / concentration at 0.5 h / concentration at 1 h / concentration at 2 h / concentration at 3 h / concentration at 4 h / concentration at 6 h / concentration at 8 h / concentration at 12 h / concentration at 14 h / concentration at 16 h / concentration at 24 h: both sexes, human, plasma, oral; for Cmax: read-out: Cmax, unconjugated Phenylephrine; for bioavailability: read-out: Frel last (bioavailability relative to immediate release oral formulation), unconjugated Phenylephrine; for concentration at 0.083 h: 0.083 h post-dose; for concentration at 0.083 h / concentration at […] / concentration at 0.5 h / concentration at 1 h / concentration at 2 h / concentration at 3 h / concentration at 4 h / concentration at 6 h / concentration at 8 h / concentration at 12 h / concentration at 14 h / concentration at 16 h / concentration at 24 h: read-out: Mean plasma concentration (Unconjugated); for concentration at 0.5 h: 0.5 h post-dose; for concentration at 1 h: 1 h post-dose; for concentration at 2 h: 2 h post-dose; for concentration at 3 h: 3 h post-dose; for concentration at 4 h: 4 h post-dose; for concentration at 6 h: 6 h post-dose; for concentration at 8 h: 8 h post-dose; for concentration at 12 h: 12 h post-dose; for concentration at 14 h: 14 h post-dose; for concentration at 16 h: 16 h post-dose; for concentration at 24 h: 24 h post-dose
# Procedure: The following study was conducted to examine the phenylephrine absorption behavior in GI tract. […] Enterion™ capsules (Pharmaceutical Profiles Ltd, UK) allow for deployment of drug delivery at a desired location within the GI tract. To determine the capsules had reached a desired location, preparations of regimens A and C were administered orally with 210 mL water followed by a radiolabeled drink containing 4 MBq 99m-Tc-diethylenetriaminepetaacetic acid (DTPA) in 30 mL water so that the location of the ingested materials could be visualized by scintigraphic imaging. […] The blood samples were collected into a tube containing lithium heparin, centrifuged within 30 minutes at 1500 g for 15 minutes at 4 degrees Celsius. The plasma was analyzed for phenylephrine in its conjugated and unconjugated forms. The amount of conjugated phenylephrine was calculated by subtracting the amount of unconjugated phenylephrine assayed from the amount of total phenylephrine assayed.
# The relative bioavailability, shown as Frel last in the table, indicates the bioavailability of phenylephrine administered to the colon relative to that administered as an immediate release oral formulation.
# [3] = oral dosage forms; cited from earlier work
# [4] = 10 mg PE-colon (Regimen A) n = 8
# [5] = 30 mg PE-colon (Regimen C) n = 6
# [6] = 10 mg PE-colon (Regimen A) n = 8, mean ± SD
# [7] = 10 mg to colon via Enterion capsule (Regimen A)
# [8] = 30 mg PE-colon (Regimen C) n = 6, mean ± SD
# [9] = 30 mg to colon via Enterion capsule (Regimen C)
compound,measurement,setting,value
CCOC(=O)N1CCC(=C2c3ccc(Cl)cc3CCc3cccnc32)CC1 [loratadine],time the antihistaminic effect lasts,[1],> 24 h
"CNC[C@H](O)c1cccc(O)c1 [Phenylephrine hydrochloride, phenylephrine hydrochloride]","t1/2, unconjugated Phenylephrine","[2]; 10 mg PE-colon (Regimen A) n = 2, mean",8.19 (n = 2) hours
same,"Tlag, unconjugated Phenylephrine",[2]; [4],0.0800 (0–0.750)a hours
same,"Tmax, unconjugated Phenylephrine",[2]; [4],1.50 (0.250–3.00)a hours
same,active unconjugated form as share of total phenylephrine concentration over time in plasma (AUC0-∞ unconjugated / AUC0-∞ total),[2]; 10 mg phenylephrine in immediate release form,≤ 0.5%
same,active unconjugated form as share of total phenylephrine concentration over time in plasma (AUC0-∞ unconjugated / AUC0-∞ total),[2]; 10 mg phenylephrine released in the colon,approximately 2.2%
same,"t1/2, unconjugated Phenylephrine","[2]; 30 mg PE-colon (Regimen C) n = 3, mean ± SD",10.8 ± 7.99 (n = 3) hours
same,"Tlag, unconjugated Phenylephrine",[2]; [5],0 (0–0.750)a hours
same,"Tmax, unconjugated Phenylephrine",[2]; [5],2.25 (0.750–6.03)a hours
same,active unconjugated form as share of total phenylephrine concentration over time in plasma (AUC0-∞ unconjugated / AUC0-∞ total),[2]; 30 mg phenylephrine released in the colon,Approximately 5%
same,increase of bioavailability versus oral immediate release form,[2]; absorption from the lower intestinal tract,by a factor of three
same,AUC(0-t),"[2]; 10 mg, 10 mg PE-colon (Regimen A) n = 2, mean, read-out: AUC0–24, unconjugated Phenylephrine (Table 13)",2.87 ng·h/mL
same,AUC(0-t),"[2]; 10 mg, 10 mg phenylephrine hydrochloride delivered to the colon, read-out: mean AUC0-24 value of unconjugated phenylephrine",1.58 ± 0.915 ng·h/mL
same,AUC(0-t),"[2]; 30 mg, 30 mg PE-colon (Regimen C) n = 3, mean ± SD, read-out: AUC0–24, unconjugated Phenylephrine (Table 13)",8.94 ± 5.16 ng·h/mL
same,AUC(0-t),"[2]; 30 mg, 30 mg phenylephrine hydrochloride delivered to the colon, read-out: mean AUC0-24 value of unconjugated phenylephrine",5.17 ± 1.56 ng·h/mL
same,Cmax,[2]; [6],0.4 ± 0.454 ng/mL
same,bioavailability,[2]; [6],332 ± 232%
same,concentration at 0.083 h,[2]; [7],0.0586 ng/mL
same,concentration at […],"[2]; 10 mg to colon via Enterion capsule (Regimen A), 0.25 h post-dose",0.304 ng/mL
same,concentration at 0.5 h,[2]; [7],0.145 ng/mL
same,concentration at […],"[2]; 10 mg to colon via Enterion capsule (Regimen A), 0.75 h post-dose",0.125 ng/mL
same,concentration at 1 h,[2]; [7],0.135 ng/mL
same,concentration at […],"[2]; 10 mg to colon via Enterion capsule (Regimen A), 1.5 h post-dose",0.16 ng/mL
same,concentration at 2 h,[2]; [7],0.187 ng/mL
same,concentration at […],"[2]; 10 mg to colon via Enterion capsule (Regimen A), 2.5 h post-dose",0.182 ng/mL
same,concentration at 3 h,[2]; [7],0.165 ng/mL
same,concentration at 4 h,[2]; [7],0.15 ng/mL
same,concentration at 6 h,[2]; [7],0.111 ng/mL
same,concentration at 8 h,[2]; [7],0.068 ng/mL
same,concentration at 12 h,[2]; [7],0.058 ng/mL
same,concentration at 14 h,[2]; [7],0.059 ng/mL
same,concentration at 16 h,[2]; [7],0.064 ng/mL
same,concentration at 24 h,[2]; [7],0.059 ng/mL
same,Cmax,[2]; [8],0.468 ± 0.174 ng/mL
same,bioavailability,[2]; [8],333 ± 140%
same,concentration at 0.083 h,[2]; [9],0.0458 ng/mL
same,concentration at […],"[2]; 30 mg to colon via Enterion capsule (Regimen C), 0.25 h post-dose",0.0784 ng/mL
same,concentration at 0.5 h,[2]; [9],0.229 ng/mL
same,concentration at […],"[2]; 30 mg to colon via Enterion capsule (Regimen C), 0.75 h post-dose",0.242 ng/mL
same,concentration at 1 h,[2]; [9],0.253 ng/mL
same,concentration at […],"[2]; 30 mg to colon via Enterion capsule (Regimen C), 1.5 h post-dose",0.348 ng/mL
same,concentration at 2 h,[2]; [9],0.354 ng/mL
same,concentration at […],"[2]; 30 mg to colon via Enterion capsule (Regimen C), 2.5 h post-dose",0.352 ng/mL
same,concentration at 3 h,[2]; [9],0.324 ng/mL
same,concentration at 4 h,[2]; [9],0.309 ng/mL
same,concentration at 6 h,[2]; [9],0.311 ng/mL
same,concentration at 8 h,[2]; [9],0.269 ng/mL
same,concentration at 12 h,[2]; [9],0.195 ng/mL
same,concentration at 14 h,[2]; [9],0.204 ng/mL
same,concentration at 16 h,[2]; [9],0.196 ng/mL
same,concentration at 24 h,[2]; [9],0.157 ng/mL
same,maximal plasma concentration of unconjugated phenylephrine as percentage of maximal plasma concentration of total phenylephrine,[2]; immediate release formulation by oral administration,less than 0.7%
same,half-life of active phenylephrine in plasma,[3],approximately 2 hours
